From patent publication US9271487B2, “Protein stabilized antimicrobial composition formed by melt processing” (Kimberly-Clark Worldwide, Inc., priority 2010, dated 2016)

Test: Thymol Concentrations in Extractions (thymol released into liquid, HPLC)
Assay type: physicochemical
Settings: neat thymol <250 microns, 2 g, 30 mins
Procedure: An aliquot of a sample was centrifuged at approximately 5000 rpm until visible settling occurred (approximately 30 minutes). […]. The contents were dissolved and diluted with a 0.1% AA:IPA (50:50) solution to volume. The solution was then filtered with Pall Acrodisc 0.45 micron nylon membrane. The thymol concentration was determined through “High Performance Liquid Chromatography (HPLC) analysis” according to the following conditions:
HPLC Equipment & Conditions
HPLC: Agilent 1100 HPLC system.
Column: Phenomenex Luna NH2 (5 μm, 250 mm×4.6 mm)-ambient
Detector: UV/Vis at 280 nm
Mobile Phases: (75:25) (IPA: 0.1% acetic acid)
Flow Rate: approximately 0.6 mL/min.
Injection Volume: approximately 15 μL

Structure (SMILES): Cc1ccc(C(C)C)c(O)c1 [thymol, Thymol]
- % Thymol (wt/wt) in extract solution (0 g citric acid, 100 mL deionized water): 0.084 % (wt/wt)
- % Thymol (wt/wt) in extract solution (1.14 g citric acid, 97 mL deionized water): 0.081 % (wt/wt)
